Several values for one entry are separate records, joined by “and”; a condition that tells them apart may be missing. Equal entries are not always repeated.
How the values were obtained:
A498 cells = experiment: MTT cytotoxicity assay, A498; type: cell-based, human; details: A498, 72 h exposure, read-out: IC50 (median growth inhibitory concentration)
Procedure: Platinum(IV) complexes were dissolved in DMSO to stock solutions of 1 mg/mL just before the experiment, and a calculated amount of drug solution was added to the cell growth medium to a final solvent concentration of 0.5%, which had no discernible effect on cell killing. Cisplatin (CDDP) and oxaliplatin (OXP) were dissolved just before the experiment in a 0.9% NaCl solution.
Human prostate adenocarcinoma (PC3) cells were obtained from European Collection of Cell Cultures (ECACC, Salisbury, UK). Human ovarian cancer cell lines A2780 and its cisplatin resistant variant, A2780cisR, were kindly provided by Prof.
Cancer Res. 1988, 48, 589-601]. […] Triplicate cultures were established for each treatment.

[1] = tested on: Lewis lung carcinoma (LLC); experiment: In vivo efficacy study, Lewis lung carcinoma mouse model; set-up: species or system C57BL mice; details: day 7-14
Procedure: A preliminary in vivo efficacy study was carried out on a mouse model (see Table 3 below):
Lewis lung carcinoma (LLC) was implanted i.m. (2·10^6 cells inoculum) into the right hind leg of 8-week old inbred C57BL mice (24±3 g body weight). Chemotherapy was delayed until the tumor became visible (day 7).

[2] = tested on: Histone deacetylase (HDAC); experiment: Histone deacetylase assay (Fluor-de-Lys) in MCF-7 cells; type: cell-based, human; details: MCF-7, 24 h, IC50 concentrations
Procedure: Histone deacetylase activity was determined using Fluor-de-Lys® HDAC fluorometric activity assay kit (Enzo Life Sciences International, Inc., Plymount Meeting, Pa., U.S.A.). […] Fluorescence was measured using a Fluoroskan Ascent FL (Labsystem, Finland) plate reader, with excitation at 360 nm and emission at 460 nm. For comparison purpose, the HDAC activity was also measured in nuclear extracts of MCF-7-treated cells by means of the same fluorometric activity assay kit. In this latter case, MCF-7 nuclear extracts were obtained as follow: cell pellets were re-suspended in lysis buffer [Tris.HCl (10 mM, pH 8.0), KCl (60 mM), EDTA (1.2 mM), DTT (1 mM), PMSF (0.05 mM), NP-40 (0.05%)] and kept on ice for 10 min. Subsequently, samples were centrifuged at 1000 g and re-suspended in the nuclear extraction buffer [Tris.HCl (20 mM, (pH 8.0), NaCl (420 mM), MgCl2 (0.7 mM), EDTA (0.25 mM), glycerol (25%)] for 30 min at 4° C., and then centrifuged at 15000 g for 15 min at 4° C.
The complexes described here were specifically designed to release either VPA of PhB inside the cells in the hope that they will inhibit HDAC activity paving the way for more efficient DNA platination. Thus, in addition to measuring the levels of DNA platination, we also measured the ability of these pro-drugs to inhibit HDAC activity in cells. […] For comparison purposes, the HDAC inhibitory effect determined by tested complexes was also assayed in isolated nuclei of MCF-7 treated cells (FIG. 3B).
The HDAC activity was determined by the Fluor de Lys® Fluorescent Cellular Activity Assay (Enzo Life Sciences).
Also, MCF-7 cells were incubated for 24 h with increasing concentrations of compounds I-VIII and their HDAC activity was determined. The IC50 values for the inhibition of HDAC activity in the cells are depicted in FIG. 3C.

nine cancer cell lines = experiment: MTT cytotoxicity, over the nine cancer cell lines; details: read-out: average IC50 values for the nine cancer cell lines; mean over nine cell lines, 72 h MTT
[3] = tested on: six human cancer cell lines; experiment: MTT cytotoxicity, over six human cancer cell lines; type: cell-based; details: on average over tested cell lines
Procedure: MTT assay. […] Triplicate cultures were established for each treatment.
The two dimers, 3a and 3b, as well as compounds 1a and 2a were screened against six human cancer cell lines representative of lung (H157), colon (HCT-15), cervical (A431), ovarian (2008) and pancreatic (PSN1) cancers, along with melanoma (A375). Cytotoxicity was evaluated by means of the MTT test after 72 h of treatment and the in vitro antitumor potential of newly synthesized derivatives was compared to that of the reference metallo-drugs CDDP and OXP.

2008 cells = experiment: Glycolysis (Mito-ID O2 sensor), 2008; type: cell-based, human; details: IC50 concentrations, 24 h
Procedure: (§1) Glycolysis. The cellular glycolytic activity was assessed using the Mito-ID® O2 Extracellular Sensor Kit according to the manufacturer's instructions (Enzo Life Sciences, Farmingdale, N.Y.). Briefly, PSN-1 cells (15·10^3 per well) were seeded in 96-well plates. After 24 h, cells were treated with Mito-ID® O2 Sensor Probe Solution containing the tested compounds at the appropriate concentration. Fluorescence was estimated using a plate reader (Fluoroskan Ascent FL, Labsystem, Finland) at 350 nm (excitation) and 610 nm (emission).
(§2) Based on the above findings, we investigated the effects determined by derivatives 3a and 3b on 2008 and PSN-1 cancer cell aerobic glycolysis and mitochondria function.
(§3) However, these effects were magnified in PSN-1 cells, having reduction of cellular glycolytic activity of about 36 and 20% for 3a and 3b, respectively. […] This latter result could be explained tacking into consideration that the reference compound [Pt(DACH)(56Phen)] itself, that is also released upon reduction of 3a and 3b, is effective in hampering cellular glycolysis in both tested cancer cell lines. The difference between 3a and 3b might be attributed to the added effect of DCA.

PSN-1 cells [4] = experiment: Glycolysis (Mito-ID O2 sensor), PSN-1; type: cell-based, human; details: IC50 concentrations, 24 h
Procedure: as §1, §2, §3

PSN-1 cells [5] = experiment: Mitochondrial membrane potential (Mito-ID), PSN-1; type: cell-based, human; details: 12 h of incubation
Procedure: Mitochondrial membrane potential (ΔΨ). ΔΨ was assayed using the Mito-ID Membrane Potential Kit according to the manufacturer's instructions (Enzo Life Sciences, Farmingdale, N.Y.). Briefly, 2008 and PSN1 cells were seeded onto 96-well microplates at 5.10^4 cells/well. After 24 h, cells were treated with tested compounds for 6, 12 and 24 h. The mitochondrial depolarizing agent, carbonyl cyanide 3-chlorophenylhydrazone (CCCP) was employed as positive control. An equal volume of cationic dye loading solution was added to each well and cell plates were incubated for additional 30 min at 37° C. Plates were read at excitation/emission wavelengths 490 and 590 nm using a fluorescence microplate reader (Fluoroskan Ascent FL, Labsystem, Finland).
In addition, it is interesting to note that treatment of 2008 and PSN-1 cells with 3a and 3b determined a significant time-dependent increase in the number of cells with depolarized mitochondria (data not shown). In particular, after 12 h of incubation, 3a elicited an increase of about 39% of PSN-1 cells with depolarized mitochondrial potential FIG. 12B). Again, the reference compound [Pt(DACH)(56Phen)] was effective in hampering cellular mitochondrial membrane potential in both tested cancer cell lines.

Row | Compound | IC50 (A498 cells) [µM] | Average tumor weight (mean ± SD, g) ([1]; daily dose 1.5 mg kg^-1 i.p.) [g] | Inhibition of tumor growth (%) ([1]; daily dose 1.5 mg kg^-1 i.p.) | Average tumor weight (mean ± SD, g) ([1]; daily dose 3 mg kg^-1 i.p.) [g] | Inhibition of tumor growth (%) ([1]; daily dose 3 mg kg^-1 i.p.) | effect on HDAC activity (in words) [2] | IC50 (nine cancer cell lines) | times more potent than compound 3b [3] | reduction of glycolysis processes compared with untreated control cells (2008 cells) | reduction of cellular glycolytic activity (PSN-1 cells [4]) | increase of cells with depolarized mitochondrial potential (PSN-1 cells [5])
1 | [NH2][Pt]([NH2])([Cl])[Cl] [CDDP, Cisplatin, reference compound] | 17.5 ± 1.21 | 0.150 ± 0.07 | 73.35 | 0.044 ± 0.07 | 92.18 | not effective in modifying HDAC activity | 9.18 µM and 9.9 µM |  |  |  | 
2 | c,c,t,t,c,c-[(DACH)(56Phen)(PhBu)Pt(μ-OOC—(CH2)2—CONH(CH2)3COO)—Pt(DCA)(NH3)2 (Cl2)](TFA)2 [Compound 3a] |  |  |  |  |  |  |  | about 12 fold | about 25% | about 36% | about 39%

From US20190290656A1, “PT(IV) PRODRUGS” (YISSUM RESEARCH DEVELOPMENT COMPANY OF THE HEBREW …, priority 2015, published 2019)
